From PubChem BioAssay (NCI)
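All cell lines were grown in 96-well plates and treated with compound for 48 hours. GI50 = concentration required for 50% inhibition of growth. At the TGI there is no net growth.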

Assays:
Experiment in all cases: NCI tumour cell line growth inhibition, 48 h
DMS 273 small cell lung = system: DMS 273 small cell lung
KM20L2 colon = system: KM20L2 colon
M19-MEL melanoma = system: M19-MEL melanoma
NCI-H522 lung = system: NCI-H522 lung
U251 CNS = system: U251 CNS
XF 498 CNS = system: XF 498 CNS
MDA-MB-435 = system: MDA-MB-435
NCI/ADR-RES ovarian = system: NCI/ADR-RES ovarian
PC-3 prostate = system: PC-3 prostate
HOP-18 NSCLC = system: HOP-18 NSCLC

Row | Compound | TGI (DMS 273 small cell lung) | TGI (KM20L2 colon) | TGI (M19-MEL melanoma) | TGI (NCI-H522 lung) | TGI (U251 CNS) | TGI (XF 498 CNS) | GI50 (MDA-MB-435) | TGI (MDA-MB-435) | GI50 (NCI-H522 lung) | GI50 (NCI/ADR-RES ovarian) | TGI (NCI/ADR-RES ovarian) | GI50 (PC-3 prostate) | TGI (PC-3 prostate) | GI50 (U251 CNS) | TGI (HOP-18 NSCLC)
1 | CC(C)C(Nc1c2ccccc2nc2ccccc12)C(=O)O (stereo unspecified) | > 100 µM | > 100 µM | > 100 µM | > 100 µM | > 100 µM | > 100 µM | – | – | – | – | – | – | – | – | –
2 | COc1cc2ncnc(Nc3ccc(C)c(O)c3)c2cc1OC | – | – | – | > 18.6 µM | > 25 µM | – | > 25 µM | > 25 µM | 2.83 µM | 16.4 µM | > 25 µM | > 19.8 µM | > 25 µM | 15.8 µM | –
3 | COC(=O)C1=C(C)N(NC(=O)OC(C)(C)C)C(=O)C1=P(c1ccccc1)(c1ccccc1)c1ccccc1 | > 100 µM | > 100 µM | > 100 µM | > 100 µM | > 100 µM | > 100 µM | – | – | – | – | – | – | – | – | > 100 µM
4 | Cc1cc(S(=O)(=O)Nc2nnc(-c3ccccc3)c(-c3ccccc3)n2)c(SCC(N)=O)cc1Cl | – | – | – | 50.9 µM | 78.4 µM | – | 51.5 µM | > 100 µM | 22.9 µM | > 100 µM | > 100 µM | 94.8 µM | > 100 µM | 31.1 µM | –
5 | CC(C)(C)c1cc(C(C)(C)C)cc(S(=O)(=O)Nc2cc3ccccc3cc2C(=O)NCCN)c1 | – | – | – | 3.72 µM | 3.15 µM | – | 1.68 µM | 3.18 µM | 1.8 µM | 2.37 µM | 6.54 µM | 2.4 µM | 6.23 µM | 1.75 µM | –
6 | COc1cc(C=C2C(=O)NC(=O)NC2=O)cc(OC)c1OC | > 100 µM | > 100 µM | > 100 µM | > 100 µM | > 100 µM | > 100 µM | – | – | – | – | – | – | – | – | > 100 µM
7 | c1cc(CNC23CC4CC(CC(C4)C2)C3)cc(C[N+](Cc2cccc(CNC34CC5CC(CC(C5)C3)C4)c2)(Cc2cccc(CNC34CC5CC(CC(C5)C3)C4)c2)Cc2cccc(CNC34CC5CC(CC(C5)C3)C4)c2)c1 (stereo unspecified) | – | – | – | 6.49 µM | 11.3 µM | – | 3.45 µM | 8.81 µM | 3.06 µM | 6.01 µM | 19 µM | 5.86 µM | 21.6 µM | 4.68 µM | –
8 | c1ccc(CNn2nnc3ccccc32)cc1 | > 100 µM | > 100 µM | > 100 µM | > 100 µM | – | > 100 µM | – | – | – | – | – | – | – | – | –
9 | Nn1c(=O)n(Cc2ccccc2)n(-c2ccccc2)c1=O | > 100 µM | – | – | > 100 µM | > 100 µM | > 100 µM | – | – | – | – | – | – | – | – | –
10 | CC(C)(C)c1cc(Br)c(O)c(CN(Cc2cc(C(C)(C)C)cc(Br)c2O)C2CCCCC2)c1 | – | – | – | 25.1 µM | 26.8 µM | – | – | 27.4 µM | – | – | 24.3 µM | – | 28.1 µM | – | –
11 | COC(=O)[C@H](C)NC(=O)NC(=O)NC(=O)CI | – | – | – | 3.68 µM | 31.4 µM | – | 10.3 µM | 23.5 µM | 1.96 µM | 19.1 µM | 43 µM | 17.1 µM | 32.2 µM | 17.3 µM | –
12 | O=C(Cc1ccccc1)NN1C(=O)C(Cl)C1c1cc(Br)ccc1O (stereo unspecified) | > 100 µM | > 100 µM | 23.3 µM | > 100 µM | 32.6 µM | > 100 µM | – | – | – | – | – | – | – | – | > 100 µM
13 | Cc1cn(C2CC(O)C(CO)O2)c(=O)n2nnnc12 (stereo unspecified) | > 100 µM | – | > 100 µM | > 100 µM | > 100 µM | – | – | – | – | – | – | – | – | – | > 100 µM
14 | COc1cc2c3c(n(CCCNC(=O)OCC4c5ccccc5-c5ccccc54)c(=O)c2cc1OC)-c1cc2c(cc1/C3=C\CCNC(=O)OCC1c3ccccc3-c3ccccc31)OCO2 | – | – | – | > 23.6 µM | > 36.7 µM | – | > 28.9 µM | 49 µM | > 11 µM | > 38 µM | > 50 µM | > 50 µM | > 50 µM | > 17.8 µM | –
15 | C[C@@H]1CC(=O)C2CCCC1C2=O (stereo partly specified) | > 100 µM | > 100 µM | > 100 µM | > 100 µM | > 100 µM | – | – | – | – | – | – | – | – | – | > 100 µM
16 | COC(C(O)CO)C(O)C(O)C(=O)NNc1ccccc1 (stereo unspecified) | – | – | – | > 100 µM | > 100 µM | – | – | > 100 µM | – | – | > 100 µM | – | > 100 µM | – | –
17 | Oc1cccnc1CN1CCCCC1 | – | – | – | > 100 µM | > 100 µM | – | – | > 100 µM | – | – | > 100 µM | – | > 100 µM | – | –
18 | NP(=O)(Oc1c2occc2cc2ccc(=O)oc12)N(CCCl)CCCl (stereo unspecified) | – | – | – | > 100 µM | > 100 µM | – | – | > 100 µM | – | – | > 100 µM | – | > 100 µM | – | –
19 | Clc1ccc(C2=Nn3c(COc4ccccc4Cl)nnc3SC2)c(Cl)c1 | – | – | – | 80.3 µM | 45.8 µM | – | 20.1 µM | 84.5 µM | 22.6 µM | > 100 µM | > 100 µM | 37.2 µM | > 100 µM | 14.2 µM | –
20 | O=C(N/N=C/c1ccc(Cl)cc1)c1ccc(C(F)(F)F)nc1Nc1cccc(C(F)(F)F)c1 | – | – | – | 10.7 µM | 10.2 µM | – | 3.17 µM | 20.1 µM | 2.8 µM | 1.96 µM | 6.99 µM | 2.05 µM | 8.03 µM | 1.55 µM | –
21 | COc1ccc(/C=C/c2ccnc3ccccc23)c(OC)c1 | – | – | – | > 10 µM | > 10 µM | – | – | 5.09 µM | – | – | > 10 µM | – | > 10 µM | – | –
22 | CC(C)(C)c1ccc2c(c1)S(=O)(=O)Nc1ccccc1NS(=O)(=O)c1cc(C(C)(C)C)ccc1OCCOCCOCCO2 | > 100 µM | – | > 100 µM | – | > 100 µM | – | – | – | – | – | – | – | – | – | > 100 µM
23 | Cc1cc(Cl)ccc1N=C1NC(=O)C(CC(=O)Nc2ccc([N+](=O)[O-])cc2[N+](=O)[O-])S1 (stereo unspecified) | 82.7 µM | > 100 µM | 75.4 µM | – | 59.9 µM | 53.6 µM | – | – | – | – | – | – | – | – | –
24 | OC[C@H]1CCCC1O (stereo partly specified) | – | – | – | > 100 µM | > 100 µM | – | – | > 100 µM | – | – | > 100 µM | – | > 100 µM | – | –
25 | N=C1C(c2nc3ccccc3s2)=C(O)CN1c1cc(C(F)(F)F)ccc1Cl | – | – | – | > 100 µM | > 100 µM | – | 4.14 µM | 36.1 µM | 9.49 µM | 7.45 µM | 37.6 µM | 5.82 µM | 49.9 µM | 9.55 µM | –
26 | COC1=C(C)C(=O)c2c(c(COC(N)=O)c3n2CC2C3N2C)C1=O (stereo unspecified) | – | – | – | 0.0304 µM | 0.0231 µM | – | – | 0.0921 µM | – | – | 0.336 µM | – | 0.244 µM | – | –
27 | Cc1ccc(C(=O)CN(/C=C/C(=O)C(F)(F)F)c2ccc(S(N)(=O)=O)cc2)cc1 | – | – | – | > 100 µM | > 100 µM | – | > 100 µM | > 100 µM | 53.8 µM | 62.9 µM | > 100 µM | 59.8 µM | > 100 µM | 48.4 µM | –
